# Patent publication US8420852B2, “Phospholipase A2 inhibitors and their use in treating neurological injury and disease” (The Regents of the University of California, priority 2007, dated 2013)
# Entries after “also recorded” stand apart in the source; their conditions may differ.
# How the values were obtained:
# [1] = system: SJL/J mice induced with EAE; test: EAE model of multiple sclerosis, clinical score; type: in vivo, mouse
# C57BL/6 mice with EAE = details: C57BL/6 mouse strain, previously shown; cited from earlier work
Structure (SMILES),"clinical disability score at day 40 ([1]; treatment before onset from day 5/6, stopped day 27, vehicle 2.4)","clinical score at day 18 ([1]; treatment before onset from day 5/6, vehicle grade 2, 5-point scale)","clinical course of EAE vs vehicle control ([1]; treatment before onset of symptoms, from day 5/6 after immunization, daily for 3 weeks)",onset and progression of EAE (C57BL/6 mice with EAE)
"CCCCCCCCCCCCCCC(=O)C(=O)NCCCC(=O)O [AX006, 4-(2-oxohexadecanoyl)amino butyric acid]",1.6,0.5,significant during the first paralytic episode; also recorded: significant reduction of disease severity,
"CCCCC/C=C\C/C=C\C/C=C\C/C=C\CCCC(=O)C(F)(F)F [AACOCF3, arachidonyltrifluoromethyketone]",,,,markedly reduce the onset and progression of the disease
